Where two headings read alike, the source gives them in different places.

What all share (format): cell-based
Assay [1] concerns SK-N-SH neuroblastoma cells. Description: Cytotoxicity assay, MTS viability. To be noted: Homo sapiens, 72 hours. How it is done:
The ability of compounds of the disclosure to inhibit the proliferation of SK—N—SH neuroblastoma cells was assessed. The SK—N—SH cell line was maintained as a monolayer in Dulbeccos Modified Eagles medium (DMEM) supplemented with 10% foetal bovine serum (FBS) and grown at 37° C. in a humidified atmosphere with 5% CO2. For the cytotoxicity assay, SK—N—SH cells were seeded at a density of 2×10^3 cells per well in 96-well plates. The cells were treated with serial dilutions of the test compounds (1:2 starting concentration 100 µM) and viability measured after 72 hours using a standard MTS assay. Cell viability was normalised to control (vehicle alone) and dose response curves and EC50 values (Table 3) were determined using Graph Pad Prism 6.

Assay [2] concerns A2780 ovarian cancer cells. Description: In vitro growth inhibition assay, Alamar Blue, single agent IC50. The note with it: Homo sapiens. How it is done: (§1) In vitro growth inhibition assays were performed as technical triplicate in two independent experiments and cell viability was assessed by Alamar Blue assay readout. Briefly, cells in logarithmic phase growth were seeded in 384-well plates in a 50 μL/well assay volume. Cells were seeded at 1,200 cells/well using a Multidrop 384 (Thermo Scientific) and allowed to adhere at 37° C. with 5% CO2, in a humidified atmosphere (LiCONIC incubator). After 24 hours incubation, test compounds, positive control (20 μM Thonzonium bromide, 100% kill) and vehicle only (0.4% DMSO) were added into wells of each assay plate using a Tecan HP D300 Digital Dispenser in technical triplicate under minimum light. Following 72 hours drug exposure, metabolic activity was detected by addition of 10% (v/v) Alamar Blue reagent to each assay well using a Multidrop Cambi (Thermo Scientific) and determined by measurement of fluorescence intensity (excitation 555 nm, emission 585 nm) using an EnSpire (Perkin Elmer) plate reader. Readings were performed at 0 hour (background) and after 6 hours alamar blue incubation at 37° C.
Each drug was tested as a 10-point concentration series with two-fold serial dilutions of each drug. The concentration series for compounds 6 and 8 was 100, 50, 25, 12.5, 6.25, 3.125, 1.563, 0.781, 0.391 and 0.195 μM and for compounds 24, 43 and 48 was 50, 25, 12.5, 6.25, 3.125, 1.563, 0.781, 0.391, 0.195 and 0.098 μM for the two independent experiments. The concentration series for vinorelbine and paclitaxel was 100, 50, 25, 12.5, 6.25, 3.125, 1.5625, 0.781, 0.391 and 0.195 nM. Thonzonium bromide (20 μM) and 0.4% DMSO were used as positive and vehicle controls, respectively. The IC50 value was calculated by derivation of the best-fit line using a sigmoidal dose response model (Activity Base Software Suite, IDES).
Activity Base software suite (IDES, version 8.3.0.175) was used for data analysis. Cell survival is expressed as a percentage of viable cells. IC50 concentrations were calculated by derivation of the best-fit line using a sigmoidal dose response model with technical triplicate data points.
In general terms: The colour change of resazurin is a common sign of viable cells or microbes.

The test system of a further assay is A2780 (ovarian) cells. Description: Anti-proliferative activity, Cell-Titre luminescent viability assay. The note with it: Homo sapiens, 72 h exposure, Cell-Titre luminescent reagent. The method in brief: (§2)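 Cells attached 24 h at 37° C., 5% CO2, then treated 72 h with compound at 0.3–100 μM or 0.1–30 μM. Viability read by Cell-Titre luminescence after 30 min reagent exposure, normalized to vehicle; EC50 from variable-slope sigmoidal nonlinear regression.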

The subject of the next assay is A549 (NSCLC) cells. The assay is described as above. To be noted: Homo sapiens, 72 h exposure, Cell-Titre luminescent reagent. The essentials: as §2
In assay [3] the test system is A2780 ovarian cancer cells. Description: Drug combination screen, 6x6 dose matrix, Bliss-independence synergy. Also noted: key to Max. Synergy, Vinorelbine: Bliss synergy score; 0 = no synergy, negative = antagonism; highest in matrix; key to Total Synergy, Vinorelbine: sum of Bliss synergy scores across the dose matrix. The note with it: 72 h (26*: 96-well plate format); for Max. Synergy, Paclitaxel / Total Synergy, Paclitaxel: combination with paclitaxel; for Max. Synergy, Paclitaxel / Max. Synergy, Vinorelbine: Bliss score; for Total Synergy, Paclitaxel / Total Synergy, Vinorelbine: sum of Bliss scores of the matrix; for Max. Synergy, Vinorelbine / Total Synergy, Vinorelbine: combination with vinorelbine. How it is done:
as §1
The two drugs in each combination matrix were dispensed using a Tecan HP D300 Digital Dispenser. Assays were performed in triplicate for each drug combination (test compound/vinorelbine and test compound/paclitaxel combinations). Synergistic drug interactions were calculated from the averaged cell viability data using the methodology described below.
Synergistic drug interactions were determined for each pa1rw1se drug combination by applying the Bliss-independence model that assumes independence of drug mechanisms. Prior to the analysis, percent cell viability (CV) for combination data were converted to fractional cell growth inhibition (GI) by the formula: […]
The Bliss additivism model was used to calculate a predicted combined response C to two single agents with responses A and B (using GI values), as follows:
The final score for any combination was reported as the difference between the value predicted by the additive model and the experimentally observed value, normalised to 100. Using GI values the maximum possible synergy score is 100, with 0 indicating no synergy and negative indicating possible antagonism. Scores were also reported as a “Max synergy” score, which is the highest individual synergy score for each combination matrix, and a “Total synergy” score, which was obtained by summation of each individual synergy score for the matrix.
The single agent IC50 values for the test compounds and their synergy scores in combination with vinorelbine and paclitaxel are presented in Table 4. The data is listed as IC50 mean from technical triplicates for two independent experiments. The averaged IC50 concentrations for the single agents from both runs were then used to generate the 6×6 dose matrices in the synergy experiment. Synergy scores for each drug combination were calculated by the Bliss-independence model. The maximum synergy and total synergy scores for each combination in A2780 cells are listed.

Where [4] appears, read: 72 h drug exposure, Alamar Blue, 384-well (26*: 96-well plate format), read-out: Single-agent IC50.
Where [5] appears, read: single agent, 96-well plate format, read-out: Dose matrix IC50 concentrations.

`Cc1ccc(NC(=O)c2ccn(S(=O)(=O)c3ccc4[nH]ccc4c3)c2)cc1` [Compound 43, 1-((1H-indol-5-yl)sulfonyl)-N-(p-tolyl)-1H-pyrrole-3-carboxamide] returned an IC50 in assay [1] of 17.4 µM. The IC50 in assay [2] (setting [4]) came to 13 µM. The IC50 with A2780 (ovarian) cells was 1.9 µM. In the assay on A549 (NSCLC) cells, this compound came in with an IC50 of 18 µM. In assay [3], the “Max. Synergy, Paclitaxel” value came out at 12.46; the “Total Synergy, Paclitaxel” value is recorded as 3.06; the “Max. Synergy, Vinorelbine” value is 10.94; the “Total Synergy, Vinorelbine” value worked out at 73.13.

Consider `CCC(C)c1ccc(NC(=O)C2CCN(S(=O)(=O)c3ccc4[nH]ccc4c3)CC2)cc1` (stereo not shown) [Compound 6, 1-((1H-indol-5-yl)sulfonyl)-N-(4-(sec-butyl)phenyl)piperidine-4-carboxamide], for which the IC50 in assay [1] was 5.66 µM. For the same compound, the IC50 in assay [2] (setting [4]) worked out at 12 µM. The compound further returned an IC50 in the assay with A2780 (ovarian) cells of 15.1 µM. The same compound yielded an IC50 in the assay with A549 (NSCLC) cells of 24.9 µM. In assay [3], the “Max. Synergy, Paclitaxel” value came out at 6.78; the “Total Synergy, Paclitaxel” value was −46.04; the “Max. Synergy, Vinorelbine” value was found to be 42.36; the “Total Synergy, Vinorelbine” value came to 250.66.

With `CCC1=C[C@@H]2CN(C1)Cc1c([nH]c3ccccc13)[C@@](C(=O)OC)(c1cc3c(cc1OC)N(C)[C@H]1[C@@](O)(C(=O)OC)[C@H](OC(C)=O)[C@]4(CC)C=CCN5CC[C@]31[C@@H]54)C2` [vinorelbine, reference compound], the IC50 in assay [2] (setting [5]) came out at 0.004 µM.

In assay [1], `O=C(Nc1ccc(C(F)(F)F)cc1)C1CCN(S(=O)(=O)c2ccc3[nH]ccc3c2)CC1` [Compound 8, 1-((1H-indol-5-yl)sulfonyl)-N-(4-(trifluoromethyl)phenyl)piperidine-4-carboxamide] showed an IC50 of 11.4 µM. Also, the IC50 in assay [2] (setting [4]) stood at 14.5 µM. Further, in the assay on A2780 (ovarian) cells, the IC50 came out at 11.7 µM. Besides, the IC50 in the assay with A549 (NSCLC) cells is 12.1 µM. In assay [3], the “Max. Synergy, Paclitaxel” value is recorded as 8.95; the “Total Synergy, Paclitaxel” value is recorded as −3.62; the “Max. Synergy, Vinorelbine” value was 32.29; the “Total Synergy, Vinorelbine” value is given as 225.43.

`Cn1cc(S(=O)(=O)N2CCC(C(=O)Nc3ccc(C(F)(F)F)cc3)CC2)cc1C(N)=O` [Compound 2, 1-((5-carbamoyl-1-methyl-1H-pyrrol-3-yl)sulfonyl)-N-(4-(trifluoromethyl)phenyl)piperidine-4-carboxamide]: the IC50 in assay [1] is 26.4 µM; in the assay with A2780 (ovarian) cells, 13.9 µM; in the assay with A549 (NSCLC) cells, 33.7 µM.

In the case of `CCC(C)c1ccc(NC(=O)c2ccn(S(=O)(=O)c3ccc4[nH]c(C)cc4c3)c2)cc1` (stereo not shown) [Compound 57, N-(4-(sec-butyl)phenyl)-1-((2-methyl-1H-indol-5-yl)sulfonyl)-1H-pyrrole-3-carboxamide], the IC50 in assay [1] is 7.22 µM; in the assay on A2780 (ovarian) cells, 3.9 µM; in the assay on A549 (NSCLC) cells, 3.9 µM.

Take `CC(=O)O[C@H]1C(=O)[C@@]2(C)[C@H]([C@H](OC(=O)c3ccccc3)[C@]3(O)C[C@H](OC(=O)[C@H](O)[C@@H](NC(=O)c4ccccc4)c4ccccc4)C(C)=C1C3(C)C)[C@]1(OC(C)=O)CO[C@@H]1C[C@@H]2O` [paclitaxel, reference compound]: the IC50 in assay [2] (setting [5]) amounted to 0.004 µM.

`CCC(C)c1ccc(CCC2CCN(S(=O)(=O)c3cc(C(N)=O)n(C)c3)CC2)cc1` (stereo not shown) [Compound 34, 4-((4-(4-(sec-butyl)phenethyl)piperidin-1-yl)sulfonyl)-1-methyl-1H-pyrrole-2-carboxamide]: the IC50 in assay [1] worked out at 46.2 µM; in the assay with A2780 (ovarian) cells, 5.4 µM; in the assay on A549 (NSCLC) cells, 3.2 µM.

With `O=C(Nc1ccc(F)cc1)c1ccn(S(=O)(=O)c2ccc3[nH]ccc3c2)c1` [Compound 48, 1-((1H-indol-5-yl)sulfonyl)-N-(4-fluorophenyl)-1H-pyrrole-3-carboxamide], the IC50 in assay [1] came out at 7.56 µM. The IC50 in assay [2] (setting [4]) is 14.9 µM. The compound further displayed an IC50 in the assay with A2780 (ovarian) cells of 2.5 µM. This compound returned an IC50 in the assay with A549 (NSCLC) cells of 3.3 µM. Besides, in assay [3], the “Max. Synergy, Paclitaxel” value stood at 31.55; the “Total Synergy, Paclitaxel” value is given as 263.84; the “Max. Synergy, Vinorelbine” value amounted to 17.28; the “Total Synergy, Vinorelbine” value amounted to 68.74.

As to `CCC(C)c1ccccc1NC(=O)c1ccn(S(=O)(=O)c2ccc3[nH]ccc3c2)c1` (stereo not shown) [Compound 36, 1-((1H-indol-5-yl)sulfonyl)-N-(2-(sec-butyl)phenyl)-1H-pyrrole-3-carboxamide], the IC50 in assay [1] amounted to 22.2 µM; in the assay on A2780 (ovarian) cells it was 6.1 µM; with A549 (NSCLC) cells, 8.9 µM.

For `O=C(Nc1ccc(C(F)(F)F)cc1)N1CCN(S(=O)(=O)c2ccc3c(c2)CCN3)CC1` [Compound 14, 4-(indolin-5-ylsulfonyl)-N-(4-(trifluoromethyl)phenyl)piperazine-1-carboxamide], the IC50 in assay [1] turned out to be 26.6 µM; with A2780 (ovarian) cells, 24.8 µM; in the assay with A549 (NSCLC) cells, 33.1 µM.

`CC(C)c1ccc(NC(=O)c2ccn(S(=O)(=O)c3ccc4[nH]ccc4c3)n2)cc1` [Compound 107, 1-((1H-indol-5-yl)sulfonyl)-N-(4-isopropylphenyl)-1H-pyrazole-3-carboxamide]: the IC50 stood at 6.22 µM in assay [1], 8.11 µM in the assay on A2780 (ovarian) cells and 6.58 µM with A549 (NSCLC) cells.

As to `Cc1ccc(NC(=O)C2CCN(S(=O)(=O)c3ccc4[nH]ccc4c3)CC2)cc1O` [Compound 7, 1-((1H-indol-5-yl)sulfonyl)-N-(3-hydroxy-4-methylphenyl)piperidine-4-carboxamide], the figures for the IC50 (in assay [1]; with A2780 (ovarian) cells; in the assay on A549 (NSCLC) cells) were 32.6 µM, 41.4 µM and 44.4 µM, respectively.

On to `O=C(Nc1ccc(Cl)c(Cl)c1)c1ccn(S(=O)(=O)c2ccc3[nH]ccc3c2)n1` [Compound 83, 1-((1H-indol-5-yl)sulfonyl)-N-(3,4-dichlorophenyl)-1H-pyrazole-3-carboxamide], for which the IC50 was 13.1 µM in assay [1], 9.31 µM in the assay on A2780 (ovarian) cells and 14.3 µM in the assay on A549 (NSCLC) cells.

For `O=C(Nc1cccc(F)c1)c1ccn(S(=O)(=O)c2ccc3[nH]ccc3c2)c1` [Compound 49, 1-((1H-indol-5-yl)sulfonyl)-N-(3-fluorophenyl)-1H-pyrrole-3-carboxamide], the IC50 came to 15.4 µM in assay [1], 4.1 µM in the assay with A2780 (ovarian) cells and 6.3 µM with A549 (NSCLC) cells.

For the compound `CCC(C)c1ccc(NC(=O)c2ccn(S(=O)(=O)c3cnc4[nH]ccc4c3)c2)cc1` (stereo not shown) [Compound 60, 1-((1H-pyrrolo[2,3-b]pyridin-5-yl)sulfonyl)-N-(4-(sec-butyl)phenyl)-1H-pyrrole-3-carboxamide], the IC50 in assay [1] was found to be 13.2 µM; with A2780 (ovarian) cells, 3.8 µM; in the assay on A549 (NSCLC) cells, 3.9 µM.

For the origin of these results see patent US12528792B2, “Sulfonamide compounds and the use thereof in the treatment of cancer” (TROBIO THERAPEUTICS PTY LTD, priority 2019, dated 2026).
